Read-outs that look alike come from different tables or passages of the source.
System: Blatta orientalis
Settings: Blatta orientalis; for synergizing effect on Azamethiphos: synergist applied with Azamethiphos; for synergizing effect on Cypermethrin: synergist applied with Cypermethrin
Procedure: Method: Contact test on non-porous tile measuring 400 cm^2 at a temperature of 28° C. Test duration: up to 72 hours after exposure of the insect to the insecticidal active substance.
(§1) Three tests were performed in parallel, A, B, and C, as follows: • A) Comparative. 1 ml of Composition 2 was applied to the tile. After waiting for the complete evaporation of the solvent, 10 cockroaches were placed on top of the treated tile, starting the test. • B) According to the invention. 1 ml of Composition 8b was distributed on the tile. After waiting for the complete evaporation of the solvent, 1 ml of Composition 2 was added to the same tile. Subsequently, after waiting for the solvent to evaporate, 10 cockroaches were placed on top of the treated tile, starting the test. • C) According to the invention. 1 ml of Composition 8b was distributed on a tile. After waiting for the complete evaporation of the solvent, 10 cockroaches were placed for 30 minutes on top of the treated tile. At the end of the 30 minutes, the cockroaches were transferred to an untreated area.
Method: Contact test on non-porous tile measuring 400 cm^2 at a temperature of 28° C. Test duration: up to 120 hours after exposure of the insect to the insecticidal active substance.
as §1, with “4a” for “2”, “8d” for “8b”, “After” for “Subsequently, after”
Six tests were performed in parallel, A, B, C, D, E and F, as follows: • A) Comparative. 1 ml of Composition 9b was distributed on the tile. After waiting for the complete evaporation of the solvent, 1 ml of Composition 4a was added to the same tile. Subsequently, after waiting for the solvent to evaporate, 10 cockroaches were placed on top of the treated tile, starting the test. • B) Comparative. 1 ml of Composition 9b was distributed on a tile. After waiting for the complete evaporation of the solvent, 10 cockroaches were placed for 30 minutes on top of the treated tile. At the end of the 30 minutes, the cockroaches were transferred to an untreated area. […] 1 ml of Composition 10b was distributed on the tile. After waiting for the complete evaporation of the solvent, 1 ml of Composition 4a was added to the same tile. Subsequently, after waiting for the solvent to evaporate, 10 cockroaches were placed on top of the treated tile, starting the test. • D) Comparative. 1 ml of Composition 10b was distributed on a tile. After waiting for the complete evaporation of the solvent, 10 cockroaches were placed for 30 minutes on top of the treated tile. At the end of the 30 minutes, the cockroaches were transferred to an untreated area. […] 1 ml of Composition 8d was distributed on the tile. After waiting for the complete evaporation of the solvent, 1 ml of Composition 4a was added to the same tile. Subsequently, after waiting for the solvent to evaporate, 10 cockroaches were placed on top of the treated tile, starting the test. • F) According to the invention. 1 ml of Composition 8d was distributed on a tile. After waiting for the complete evaporation of the solvent, 10 cockroaches were placed for 30 minutes on top of the treated tile. At the end of the 30 minutes, the cockroaches were transferred to an untreated area.

Row | Molecule | synergizing effect on Azamethiphos | synergizing effect on Cypermethrin | synergizing effect on Cypermethrin (listed as oleic alcohol 95%)
1 | CCCCCCCC/C=C\CCCCCCCCOC(C)=O [Oleyl acetate] | fine synergizing effect | excellent-fine synergizing effect | 
2 | CCCCCCCCOC(=O)OCCCCCCCC [dioctyl carbonate] | good synergizing effect | synergizing effect | 
3 | Oleic alcohol [Oleic alcohol 95%] | fine synergizing effect | fine synergizing effect | superior to that shown with PBO

Source: US20260215418A1, “HYDROCARBON ALCOHOLS AND THEIR DERIVATIVES AS SYNERGISTS IN PESTICIDE ACTIVITY” (priority 2022, published 2026)
